Results taken from patent publication US20160128999A1 (AB SCIENCE, priority 2014, published 2016).
pIC50: −log10 of the molar value.

Assays:
[1] = test system: Hepatoma cell line PLC-PRF5; assay: CellTiter-Blue cell proliferation and viability assay, PLC-PRF5; format: cell-based; details: Homo sapiens, PLC-PRF-5; PLC-PRF5, 1% FCS, 72 hours; read-out: IC50 of agent as single agent
Method: (§1) During proliferation assays, all cells were grown in medium containing 1% FCS. […] Treatment was started by the addition of 50 μl of a 2× concentrated drug solution to a final volume of 100 μl. […] After incubating for 72 hours at 37° C., 10 μl of a 1⁄2 dilution of CellTiter-Blue reagent was added to each well and the plates were returned to the incubator for an additional 4 hours. The fluorescence intensity from the CellTiter-Blue reagent is proportional to the number of viable cells and data were recorded (544Ex/590Em) using a POLARstar OMEGA microplate reader (BMG Labteck Sarl). A background control without cells was used as a blank. The positive control of the assay corresponds to the cell proliferation obtained in the absence of drug treatment (100% proliferation). Each sample was done in duplicate, the […] values were transferred to an excel file, the average and standard deviation of the duplicates were calculated and expressed as a percentage of the proliferation obtained in absence of treatment. The results presented are representative of a minimum of 3 experiments.

[2] = clinically achievable concentration; read-out: Approximate Cmax measured in plasma; cited from earlier work
[3] = test system: Hepatoma cell line HepG2; assay: CellTiter-Blue cell proliferation and viability assay, HepG2; format: cell-based; details: Homo sapiens; HepG2, 1% FCS, 72 hours; read-out: IC50 of agent as single agent
Method: as §1

[4] = test system: advanced Hepatocellular carcinoma (BCLC stage C); details: BCLC C patients, first line sorafenib; cited from earlier work

Compound | pIC50 [1] | pIC50 [3] | Cmax [2] | median OS [4]
CC[C@]1(O)C[C@H]2CN(CCc3c([nH]c4ccccc34)[C@@](C(=O)OC)(c3cc4c(cc3OC)N(C=O)[C@H]3[C@@](O)(C(=O)OC)[C@H](OC(C)=O)[C@]5(CC)C=CCN6CC[C@]43[C@@H]65)C2)C1 [VINC] | 6.00 to 7.00 | 6.00 to 7.00 |  | 
COc1cc([C@@H]2c3cc4c(cc3[C@@H](O[C@@H]3O[C@@H]5CO[C@@H](C)O[C@H]5[C@H](O)[C@H]3O)[C@H]3COC(=O)[C@H]23)OCO4)cc(OC)c1O [VP-16] | 4.30 | < 4.00 | ~34 µM | 
Cc1ccc(NC(=O)c2ccc(CN3CCN(C)CC3)cc2)cc1Nc1nc(-c2cccnc2)cs1 [masitinib mesilate] | < 5.30 | < 5.30 |  | 
CNC(=O)c1cc(Oc2ccc(NC(=O)Nc3ccc(Cl)c(C(F)(F)F)c3)cc2)ccn1 [sorafenib] |  |  |  | 9.5 months

Further lines, with some results ahead:

pIC50 [1] | pIC50 [3] | Compound | Cmax [2] | median OS [4]
4.00 | 4.00 | CCc1c2c(nc3ccc(OC(=O)N4CCC(N5CCCCC5)CC4)cc13)-c1cc3c(c(=O)n1C2)COC(=O)[C@]3(O)CC [CPT-11] | 1 to 10 µM | 
 | 5.30 | COc1cccc2c1C(=O)c1c(O)c3c(c(O)c1C2=O)C[C@@](O)(C(=O)CO)C[C@@H]3O[C@H]1C[C@H](N)[C@H](O)[C@H](C)O1 [DOX] |  | 
 | < 4.00 | Nc1ccn([C@@H]2O[C@H](CO)[C@@H](O)C2(F)F)c(=O)n1 [GCB, 2′,2′,-dofluoro-2′,-deoxycytidine] |  | 
